Laboratory results taken from ChEMBL document CHEMBL1201862, “PubChem BioAssay data set” (2004).
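A five-concentration, 48-hour dose response in 96-well plates underlies each endpoint, interpolated linearly between surrounding concentrations. The concentration for 50% growth inhibition is given as GI50.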 The source made the active and inactive calls. Rule as the data show it: active = GI50 up to about 1.1 µM and inactive = higher.

What was measured:
Assay in all cases: DTP human tumour cell line panel, 48 h
ACHN = test system: ACHN
A498 = test system: A498
M14 = test system: M14
DMS-114 = test system: DMS-114
SF-539 = test system: SF-539
SNB-78 = test system: SNB-78
OVCAR-4 = test system: OVCAR-4
COLO 205 = test system: COLO 205
SNB-75 = test system: SNB-75
U-251 = test system: U-251
RPMI-8226 = test system: RPMI-8226
HT-29 = test system: HT-29
HCT-116 = test system: HCT-116
NCI-H522 = test system: NCI-H522
OVCAR-8 = test system: OVCAR-8
SF-295 = test system: SF-295
HCC 2998 = test system: HCC 2998
SK-MEL-28 = test system: SK-MEL-28
CCRF-CEM = test system: CCRF-CEM
KM-20L2 = test system: KM-20L2
NCI-H23 = test system: NCI-H23
DMS-273 = test system: DMS-273
RXF 393 = test system: RXF 393
UACC-62 = test system: UACC-62
K562 = test system: K562
MOLT-4 = test system: MOLT-4
SK-OV-3 = test system: SK-OV-3
NCI-H460 = test system: NCI-H460
M19-MEL = test system: M19-MEL
XF498 = test system: XF498
SW-620 = test system: SW-620
A549 = test system: A549
KM12 = test system: KM12
SN12C = test system: SN12C
HOP-18 = test system: HOP-18
HOP-62 = test system: HOP-62
RXF 631 = test system: RXF 631
NCI-H226 = test system: NCI-H226
UACC-257 = test system: UACC-257
HCT-15 = test system: HCT-15
HOP-92 = test system: HOP-92
EKVX = test system: EKVX
UO-31 = test system: UO-31
LOX IMVI = test system: LOX IMVI
IGROV-1 = test system: IGROV-1
HL-60 = test system: HL-60
Malme-3M = test system: Malme-3M
SK-MEL-5 = test system: SK-MEL-5
SK-MEL-2 = test system: SK-MEL-2
TK-10 = test system: TK-10
SF-268 = test system: SF-268
OVCAR-3 = test system: OVCAR-3
SNB-19 = test system: SNB-19
786-0 = test system: 786-0
OVCAR-5 = test system: OVCAR-5
LXFL 529 = test system: LXFL 529
CAKI-1 = test system: CAKI-1
DLD-1 = test system: DLD-1
SR = test system: SR

`C=C(C)CCN[Si](c1ccccc1)(c1ccccc1)C(C)(C)C` was tested, and the GI50 (ACHN) was 26 µM (inactive), the GI50 (A498) was 28.9 µM (inactive) and the GI50 (M14) was 18.9 µM (inactive). The GI50 (DMS-114) was 21.7 µM (inactive), the GI50 (SF-539) was 15.6 µM (inactive) and the GI50 (SNB-78) was 25.1 µM (inactive). For the same molecule, the GI50 (OVCAR-4) was 19 µM (inactive), the GI50 (COLO 205) was 18.5 µM (inactive) and the GI50 (SNB-75) was 28.5 µM (inactive). The GI50 (U-251) was 15.4 µM (inactive), the GI50 (RPMI-8226) was 24 µM (inactive) and the GI50 (HT-29) was 16.6 µM (inactive). The GI50 (HCT-116) was 14.6 µM (inactive), the GI50 (NCI-H522) was 18.1 µM (inactive) and the GI50 (OVCAR-8) was 19.6 µM (inactive). The GI50 (SF-295) was 19.3 µM (inactive), the GI50 (HCC 2998) was 21.1 µM (inactive) and the GI50 (SK-MEL-28) was 20.3 µM (inactive). The GI50 (CCRF-CEM) was 25.8 µM (inactive), the GI50 (KM-20L2) was 17.9 µM (inactive) and the GI50 (NCI-H23) was 19.4 µM (inactive). The GI50 (DMS-273) was 18.8 µM (inactive), the GI50 (RXF 393) was 15.3 µM (inactive) and the GI50 (UACC-62) was 17 µM (inactive). The GI50 (K562) was 24.1 µM (inactive), the GI50 (MOLT-4) was 18.7 µM (inactive) and the GI50 (SK-OV-3) was 32.3 µM (inactive). For the same molecule, the GI50 (NCI-H460) was 29 µM (inactive), the GI50 (M19-MEL) was 20.5 µM (inactive) and the GI50 (XF498) was 24.5 µM (inactive). For the same molecule, the GI50 (SW-620) was 40 µM (inactive), the GI50 (A549) was 24.1 µM (inactive) and the GI50 (KM12) was 18.5 µM (inactive). The GI50 (SN12C) was 18.2 µM (inactive), the GI50 (HOP-18) was 17.2 µM (inactive) and the GI50 (HOP-62) was 17.1 µM (inactive). The GI50 (RXF 631) was 20.2 µM (inactive), the GI50 (NCI-H226) was 12.1 µM (inactive) and the GI50 (UACC-257) was 15.7 µM (inactive). For the same molecule, the GI50 (HCT-15) was 21.9 µM, the GI50 (HOP-92) was 18.2 µM (inactive) and the GI50 (EKVX) was 22.1 µM (inactive). The GI50 (UO-31) was 13.7 µM (inactive), the GI50 (LOX IMVI) was 17.8 µM (inactive) and the GI50 (IGROV-1) was 27.1 µM (inactive). For the same molecule, the GI50 (HL-60) was 20.1 µM (inactive), the GI50 (Malme-3M) was 20.5 µM (inactive) and the GI50 (SK-MEL-5) was 19 µM (inactive). The GI50 (SK-MEL-2) was 15.2 µM (inactive), the GI50 (TK-10) was 22.5 µM (inactive) and the GI50 (SF-268) was 30.5 µM (inactive). The GI50 (OVCAR-3) was 17.6 µM (inactive), the GI50 (SNB-19) was 18.4 µM (inactive) and the GI50 (786-0) was 16.6 µM (inactive).

In the case of `CN1c2ccccc2N(C(=O)c2ccccc2)C(CC(=O)O)c2cccn21` (stereo not drawn), the GI50 (ACHN) is reported as > 100 µM (inactive), the GI50 (A498) is reported as > 100 µM (inactive) and the GI50 (OVCAR-5) is reported as > 100 µM (inactive). For the same molecule, the GI50 (M14) was > 100 µM (inactive), the GI50 (DMS-114) was > 100 µM (inactive) and the GI50 (SF-539) was > 100 µM (inactive). The GI50 (LXFL 529) was > 100 µM (inactive), the GI50 (OVCAR-4) was > 100 µM (inactive) and the GI50 (COLO 205) was > 100 µM (inactive). The GI50 (SNB-75) was > 100 µM (inactive), the GI50 (U-251) was > 100 µM (inactive) and the GI50 (RPMI-8226) was > 100 µM (inactive). For the same molecule, the GI50 (HT-29) was > 100 µM (inactive), the GI50 (CAKI-1) was > 100 µM (inactive) and the GI50 (NCI-H522) was > 100 µM (inactive). The GI50 (OVCAR-8) was > 100 µM (inactive), the GI50 (SF-295) was > 100 µM (inactive) and the GI50 (HCC 2998) was > 100 µM (inactive). The GI50 (SK-MEL-28) was > 100 µM (inactive), the GI50 (CCRF-CEM) was > 100 µM (inactive) and the GI50 (KM-20L2) was > 100 µM (inactive). The GI50 (NCI-H23) was > 100 µM (inactive), the GI50 (DMS-273) was > 100 µM (inactive) and the GI50 (RXF 393) was 43.1 µM (inactive). The GI50 (UACC-62) was 55.3 µM (inactive), the GI50 (K562) was > 100 µM (inactive) and the GI50 (MOLT-4) was > 100 µM (inactive). The GI50 (SK-OV-3) was > 100 µM (inactive), the GI50 (NCI-H460) was > 100 µM (inactive) and the GI50 (M19-MEL) was > 100 µM (inactive). The GI50 (XF498) was > 100 µM (inactive), the GI50 (SW-620) was > 100 µM (inactive) and the GI50 (A549) was > 100 µM (inactive). The GI50 (KM12) was > 100 µM (inactive), the GI50 (SN12C) was > 100 µM (inactive) and the GI50 (HOP-18) was > 100 µM (inactive). For the same molecule, the GI50 (HOP-62) was > 100 µM (inactive), the GI50 (RXF 631) was > 100 µM (inactive) and the GI50 (UACC-257) was > 100 µM (inactive). For the same molecule, the GI50 (HCT-15) was > 100 µM, the GI50 (HOP-92) was 19.4 µM (inactive) and the GI50 (EKVX) was > 100 µM (inactive). The GI50 (UO-31) was > 100 µM (inactive), the GI50 (LOX IMVI) was > 100 µM (inactive) and the GI50 (IGROV-1) was > 100 µM (inactive). The GI50 (HL-60) was > 100 µM (inactive), the GI50 (Malme-3M) was > 100 µM (inactive) and the GI50 (SK-MEL-5) was > 100 µM (inactive). For the same molecule, the GI50 (SK-MEL-2) was > 100 µM (inactive), the GI50 (TK-10) was > 100 µM (inactive) and the GI50 (SF-268) was > 100 µM (inactive). For the same molecule, the GI50 (OVCAR-3) was > 100 µM (inactive), the GI50 (SNB-19) was > 100 µM (inactive) and the GI50 (786-0) was > 100 µM (inactive).

With `C=CC[P@]1(=O)O[C@H](c2ccccc2)C(C)N1C(C)C` (stereo partly drawn) the GI50 (ACHN) was > 100 µM (inactive), the GI50 (A498) was > 100 µM (inactive) and the GI50 (OVCAR-5) was > 100 µM (inactive). For the same molecule, the GI50 (M14) was > 100 µM (inactive), the GI50 (DMS-114) was > 100 µM (inactive) and the GI50 (SF-539) was > 100 µM (inactive). The GI50 (LXFL 529) was > 100 µM (inactive), the GI50 (COLO 205) was > 100 µM (inactive) and the GI50 (SNB-75) was > 100 µM (inactive). For the same molecule, the GI50 (U-251) was > 100 µM (inactive), the GI50 (RPMI-8226) was > 100 µM (inactive) and the GI50 (HT-29) was > 100 µM (inactive). The GI50 (HCT-116) was > 100 µM (inactive), the GI50 (NCI-H522) was > 100 µM (inactive) and the GI50 (OVCAR-8) was > 100 µM (inactive). The GI50 (SF-295) was > 100 µM (inactive), the GI50 (HCC 2998) was > 100 µM (inactive) and the GI50 (SK-MEL-28) was > 100 µM (inactive). The GI50 (CCRF-CEM) was > 100 µM (inactive), the GI50 (KM-20L2) was > 100 µM (inactive) and the GI50 (NCI-H23) was > 100 µM (inactive). The GI50 (RXF 393) was > 100 µM (inactive), the GI50 (UACC-62) was > 100 µM (inactive) and the GI50 (K562) was > 100 µM (inactive). For the same molecule, the GI50 (MOLT-4) was > 100 µM (inactive), the GI50 (SK-OV-3) was > 100 µM (inactive) and the GI50 (NCI-H460) was > 100 µM (inactive). For the same molecule, the GI50 (M19-MEL) was > 100 µM (inactive), the GI50 (XF498) was > 100 µM (inactive) and the GI50 (SW-620) was > 100 µM (inactive). The GI50 (A549) was > 100 µM (inactive), the GI50 (KM12) was > 100 µM (inactive) and the GI50 (SN12C) was > 100 µM (inactive). The GI50 (DLD-1) was > 100 µM (inactive), the GI50 (HOP-18) was > 100 µM (inactive) and the GI50 (HOP-62) was > 100 µM (inactive). For the same molecule, the GI50 (RXF 631) was > 100 µM (inactive), the GI50 (NCI-H226) was > 100 µM (inactive) and the GI50 (UACC-257) was > 100 µM (inactive). The GI50 (HCT-15) was > 100 µM, the GI50 (HOP-92) was > 100 µM (inactive) and the GI50 (EKVX) was > 100 µM (inactive). The GI50 (UO-31) was > 100 µM (inactive), the GI50 (LOX IMVI) was > 100 µM (inactive) and the GI50 (IGROV-1) was > 100 µM (inactive). The GI50 (HL-60) was > 100 µM (inactive), the GI50 (Malme-3M) was > 100 µM (inactive) and the GI50 (SK-MEL-5) was > 100 µM (inactive). The GI50 (SK-MEL-2) was > 100 µM (inactive), the GI50 (TK-10) was > 100 µM (inactive) and the GI50 (SF-268) was > 100 µM (inactive). For the same molecule, the GI50 (SR) was > 100 µM (inactive), the GI50 (OVCAR-3) was > 100 µM (inactive) and the GI50 (SNB-19) was > 100 µM (inactive). The GI50 (786-0) was > 100 µM (inactive).
